Laboratory results reported in ChEMBL document CHEMBL1201862, “PubChem BioAssay data set” (2004).
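Tested at 5 concentrations; 48 h exposure; 96-well plates; endpoints linearly interpolated, else capped at highest concentration. Here, GI50 denotes the concentration required for 50% inhibition of growth.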 Activity calls are given as the source filed them. Cut-off read from the data, not from the text of the source: active = GI50 up to about 1.1 µM and inactive = higher.

What was measured:
Test in all cases: NCI-60 cell line screen, 48 h
SN12C = system: SN12C
PC-3 = system: PC-3
IGROV-1 = system: IGROV-1
HCC 2998 = system: HCC 2998
HOP-92 = system: HOP-92
HOP-62 = system: HOP-62
786-0 = system: 786-0
UACC-62 = system: UACC-62
SF-539 = system: SF-539
MDA-MB-435 = system: MDA-MB-435
NCI-H226 = system: NCI-H226
SNB-75 = system: SNB-75
SK-MEL-28 = system: SK-MEL-28
NCI-H522 = system: NCI-H522
NCI-H23 = system: NCI-H23
CCRF-CEM = system: CCRF-CEM
M14 = system: M14
OVCAR-5 = system: OVCAR-5
HL-60 = system: HL-60
UO-31 = system: UO-31
LOX IMVI = system: LOX IMVI
MOLT-4 = system: MOLT-4
A549 = system: A549
RXF 393 = system: RXF 393
T47D = system: T47D
HCT-15 = system: HCT-15
COLO 205 = system: COLO 205
Hs-578T = system: Hs-578T
OVCAR-8 = system: OVCAR-8
SF-268 = system: SF-268
MDA-N = system: MDA-N
HCT-116 = system: HCT-116
NCI/ADR-RES = system: NCI/ADR-RES
HT-29 = system: HT-29
SW-620 = system: SW-620
OVCAR-4 = system: OVCAR-4
SK-MEL-5 = system: SK-MEL-5
MDA-MB-231 = system: MDA-MB-231
U-251 = system: U-251
A498 = system: A498
NCI-H460 = system: NCI-H460
SK-OV-3 = system: SK-OV-3
TK-10 = system: TK-10
BT-549 = system: BT-549
RPMI-8226 = system: RPMI-8226
OVCAR-3 = system: OVCAR-3
SR = system: SR
K562 = system: K562
DU-145 = system: DU-145
KM12 = system: KM12
ACHN = system: ACHN
SNB-19 = system: SNB-19
MCF7 = system: MCF7
SF-295 = system: SF-295
Malme-3M = system: Malme-3M
EKVX = system: EKVX
CAKI-1 = system: CAKI-1
SK-MEL-2 = system: SK-MEL-2
UACC-257 = system: UACC-257

Measured: GI50

COC1=C(N2CC2)C(=O)c2nc3n(c2C1=O)CCC3
active: PC-3 0.695 µM | HCC 2998 0.679 µM | HOP-62 0.953 µM | 786-0 0.321 µM | NCI-H522 147 nM | NCI-H23 0.497 µM | CCRF-CEM 0.265 µM | M14 0.22 µM | HL-60 210 nM | UO-31 0.224 µM | LOX IMVI 0.406 µM | MOLT-4 0.306 µM | RXF 393 0.0743 µM | COLO 205 0.656 µM | HCT-116 0.434 µM | NCI/ADR-RES 0.453 µM | HT-29 0.352 µM | SW-620 0.242 µM | OVCAR-4 0.22 µM | NCI-H460 0.45 µM | RPMI-8226 0.0489 µM | OVCAR-3 0.393 µM | SR 0.357 µM | K562 0.271 µM | DU-145 0.372 µM | ACHN 0.275 µM | MCF7 0.532 µM | SF-295 0.815 µM | Malme-3M 0.305 µM
368 nM: HCT-15
inactive: SN12C 1.3 µM | IGROV-1 1.43 µM | HOP-92 3.33 µM | UACC-62 1.54 µM | SF-539 2.04 µM | MDA-MB-435 1.45 µM | NCI-H226 1.87 µM | SNB-75 1.71 µM | SK-MEL-28 4.01 µM | OVCAR-5 1.26 µM | A549 1.98 µM | T47D 1.79 µM | Hs-578T 5.09 µM | OVCAR-8 1.35 µM | SF-268 1.6 µM | MDA-N 1.38 µM | SK-MEL-5 1.29 µM | MDA-MB-231 2.72 µM | U-251 1.4 µM | A498 1.41 µM | SK-OV-3 1.18 µM | TK-10 3.23 µM | BT-549 1.15 µM | KM12 1.37 µM | SNB-19 1.39 µM

O=C1OCC2=C1C(c1ccc(Cl)cc1)c1cc3c(cc1O2)OCO3 (stereo not given)
active: MDA-MB-435 0.778 µM | MDA-N 0.902 µM
2830 nM: HCT-15
inactive: SN12C 10.5 µM | PC-3 3.62 µM | IGROV-1 3.56 µM | HCC 2998 4.1 µM | HOP-92 > 35.8 µM | HOP-62 3.4 µM | 786-0 4.65 µM | UACC-62 4.36 µM | SF-539 2.69 µM | NCI-H226 > 100 µM | SNB-75 2.49 µM | SK-MEL-28 6.21 µM | NCI-H23 6.9 µM | CCRF-CEM 2.52 µM | M14 4.08 µM | OVCAR-5 > 23.9 µM | HL-60 2210 nM | UO-31 10.1 µM | LOX IMVI 3.66 µM | EKVX 21 µM | MOLT-4 2.74 µM | A549 4.79 µM | CAKI-1 1.66 µM | SK-MEL-2 3.2 µM | RXF 393 4.06 µM | T47D 4.3 µM | COLO 205 5.55 µM | Hs-578T 4.15 µM | OVCAR-8 9.12 µM | SF-268 7.43 µM | HCT-116 3 µM | NCI/ADR-RES 2.64 µM | HT-29 3.72 µM | SW-620 2.88 µM | OVCAR-4 84.9 µM | SK-MEL-5 3.76 µM | MDA-MB-231 > 24.3 µM | A498 8.24 µM | NCI-H460 3.34 µM | SK-OV-3 2.83 µM | TK-10 8.05 µM | BT-549 3.37 µM | RPMI-8226 3.46 µM | OVCAR-3 3.72 µM | SR 3.03 µM | UACC-257 > 21.8 µM | K562 1.82 µM | DU-145 4.15 µM | KM12 3.45 µM | ACHN 6.21 µM | SNB-19 6.97 µM | MCF7 3.16 µM | SF-295 2.88 µM | Malme-3M 6.41 µM

COC(=O)C(N)CCCC(N)C(=O)NC(C)C(=O)NC(CCC(=O)NCCNCCNc1c2ccccc2nc2cccc([N+](=O)[O-])c12)C(N)=O (stereo not given)
14200 nM: HCT-15
inactive: SN12C 12.8 µM | PC-3 4.79 µM | IGROV-1 4.6 µM | HCC 2998 8.34 µM | HOP-92 4.83 µM | HOP-62 19 µM | 786-0 5.12 µM | UACC-62 8.09 µM | SF-539 5.19 µM | MDA-MB-435 6.93 µM | NCI-H226 10.9 µM | SNB-75 10.4 µM | SK-MEL-28 16.6 µM | NCI-H522 1650 nM | NCI-H23 3.03 µM | CCRF-CEM 7.59 µM | M14 13.4 µM | OVCAR-5 35.2 µM | UO-31 21.9 µM | LOX IMVI 14.7 µM | EKVX 10.2 µM | MOLT-4 3.5 µM | A549 4.67 µM | CAKI-1 27.9 µM | SK-MEL-2 8.51 µM | RXF 393 8.51 µM | T47D 5.06 µM | COLO 205 6.28 µM | Hs-578T 17.9 µM | OVCAR-8 8.79 µM | SF-268 2.44 µM | MDA-N 14.7 µM | HCT-116 4.63 µM | NCI/ADR-RES 80.5 µM | HT-29 13.7 µM | SW-620 9.86 µM | OVCAR-4 2.16 µM | SK-MEL-5 6.92 µM | MDA-MB-231 16.9 µM | U-251 5.48 µM | A498 17.4 µM | NCI-H460 3.17 µM | SK-OV-3 28 µM | TK-10 16.2 µM | BT-549 16.3 µM | RPMI-8226 5.32 µM | OVCAR-3 12.3 µM | SR 19.7 µM | UACC-257 19.5 µM | K562 3.13 µM | DU-145 6.28 µM | KM12 10.5 µM | ACHN 10.2 µM | SNB-19 18.5 µM | MCF7 3.89 µM | SF-295 27.8 µM | Malme-3M 11.3 µM
